pIC50: −log10 of the molar value.

In this assay the target is human ACC2 (Homo sapiens (Human), UniProt O00763). Briefly: ACC2 assay, spectrophotometric 384 well assay (NADH-linked, coupled lactate dehydrogenase/pyruvate kinase reaction). Type of assay: biochemical. As to conditions: hACC2 construct lacking the 128 N-terminal amino acids; 25° C., 340 nm, 15 minutes. As for the experimental part: Spectrophotometric 384 Well Assay
Malonyl CoA formation by acetyl CoA carboxylases is stoichometrically linked to the consumption of ATP. ACC2 activity is measured in a NADH-linked kinetic method measuring ADP generated during the ACC reaction using a coupled lactate dehydrogenase/pyruvate kinase reaction.
For biological testing, a human ACC2 construct which lacks the 128 amino acids at the N-terminus for increased solubility (nt 385-6966 in Genbank entry AJ575592) is cloned. The protein is then expressed in insect cells using a baculoviral expression system. Protein purification is performed by anion exchange.
All compounds are dissolved in dimethyl sulfoxide (DMSO) to a concentration of 10 mM.
Assay reactions are then carried out in 384-well plates, with hACC2 in an appropriate dilution and at final assay concentrations (f.c.) of 100 mM Tris (pH 7.5), 10 mM trisodium citrate, 25 mM KHCC3, 10 mM MgCl2, 0.5 mg/ml BSA, 3.75 mM reduced L-glutathione, 15 U/ml lactate dehydrogenase, 0.5 mM phosphoenolpyruvate, 15 U/ml pyruvate kinase, compounds at different concentrations at final DMSO concentrations of 1%.
The enzymatic reaction is then started by addition of a mixture of NADH, acetyl Coenzyme A (both 200 μM f.c.) and ATP (500 uM f.c.). The decrease of the optical density (slope S) is then determined at 25° C. at a wavelength of 340 nm over 15 minutes in a spectrophotometric reader.
Each assay microtiter plate contains wells with vehicle instead of compound as controls for the non-inhibited enzyme (100% CTL; ‘HIGH’) and wells without acetyl-CoA as controls for non-specific NADH degradation (0% CTL; ‘LOW’).
The slope S is used for calculation of % CTL=(S(compound)−S(‘LOW’))/(S(‘HIGH’)−S(‘LOW’))*100. Compounds will give values between 100% CTL (no inhibition) and 0% CTL (complete inhibition).
For IC50 value determination, the sample slope in the presence of the test compound after subtraction of the low controls (S(compound)−S(‘LOW’)) are used.
An IC50 value is derived from the compound slopes at different dosages after subtraction of the low controls (S(compound)−S(‘LOW’)) by non-linear regression curve fitting (equation y=(A+((B−A)/(1+((C/x)^D))))).
In the following table the activity expressed as IC50 (μM) of compounds according to the invention is presented wherein the IC50 values are determined in the ACC2 assay as described hereinbefore. The term “Ex.” refers to the example numbers according to the following experimental section.

Chain of human ACC2 (O00763 129-2458): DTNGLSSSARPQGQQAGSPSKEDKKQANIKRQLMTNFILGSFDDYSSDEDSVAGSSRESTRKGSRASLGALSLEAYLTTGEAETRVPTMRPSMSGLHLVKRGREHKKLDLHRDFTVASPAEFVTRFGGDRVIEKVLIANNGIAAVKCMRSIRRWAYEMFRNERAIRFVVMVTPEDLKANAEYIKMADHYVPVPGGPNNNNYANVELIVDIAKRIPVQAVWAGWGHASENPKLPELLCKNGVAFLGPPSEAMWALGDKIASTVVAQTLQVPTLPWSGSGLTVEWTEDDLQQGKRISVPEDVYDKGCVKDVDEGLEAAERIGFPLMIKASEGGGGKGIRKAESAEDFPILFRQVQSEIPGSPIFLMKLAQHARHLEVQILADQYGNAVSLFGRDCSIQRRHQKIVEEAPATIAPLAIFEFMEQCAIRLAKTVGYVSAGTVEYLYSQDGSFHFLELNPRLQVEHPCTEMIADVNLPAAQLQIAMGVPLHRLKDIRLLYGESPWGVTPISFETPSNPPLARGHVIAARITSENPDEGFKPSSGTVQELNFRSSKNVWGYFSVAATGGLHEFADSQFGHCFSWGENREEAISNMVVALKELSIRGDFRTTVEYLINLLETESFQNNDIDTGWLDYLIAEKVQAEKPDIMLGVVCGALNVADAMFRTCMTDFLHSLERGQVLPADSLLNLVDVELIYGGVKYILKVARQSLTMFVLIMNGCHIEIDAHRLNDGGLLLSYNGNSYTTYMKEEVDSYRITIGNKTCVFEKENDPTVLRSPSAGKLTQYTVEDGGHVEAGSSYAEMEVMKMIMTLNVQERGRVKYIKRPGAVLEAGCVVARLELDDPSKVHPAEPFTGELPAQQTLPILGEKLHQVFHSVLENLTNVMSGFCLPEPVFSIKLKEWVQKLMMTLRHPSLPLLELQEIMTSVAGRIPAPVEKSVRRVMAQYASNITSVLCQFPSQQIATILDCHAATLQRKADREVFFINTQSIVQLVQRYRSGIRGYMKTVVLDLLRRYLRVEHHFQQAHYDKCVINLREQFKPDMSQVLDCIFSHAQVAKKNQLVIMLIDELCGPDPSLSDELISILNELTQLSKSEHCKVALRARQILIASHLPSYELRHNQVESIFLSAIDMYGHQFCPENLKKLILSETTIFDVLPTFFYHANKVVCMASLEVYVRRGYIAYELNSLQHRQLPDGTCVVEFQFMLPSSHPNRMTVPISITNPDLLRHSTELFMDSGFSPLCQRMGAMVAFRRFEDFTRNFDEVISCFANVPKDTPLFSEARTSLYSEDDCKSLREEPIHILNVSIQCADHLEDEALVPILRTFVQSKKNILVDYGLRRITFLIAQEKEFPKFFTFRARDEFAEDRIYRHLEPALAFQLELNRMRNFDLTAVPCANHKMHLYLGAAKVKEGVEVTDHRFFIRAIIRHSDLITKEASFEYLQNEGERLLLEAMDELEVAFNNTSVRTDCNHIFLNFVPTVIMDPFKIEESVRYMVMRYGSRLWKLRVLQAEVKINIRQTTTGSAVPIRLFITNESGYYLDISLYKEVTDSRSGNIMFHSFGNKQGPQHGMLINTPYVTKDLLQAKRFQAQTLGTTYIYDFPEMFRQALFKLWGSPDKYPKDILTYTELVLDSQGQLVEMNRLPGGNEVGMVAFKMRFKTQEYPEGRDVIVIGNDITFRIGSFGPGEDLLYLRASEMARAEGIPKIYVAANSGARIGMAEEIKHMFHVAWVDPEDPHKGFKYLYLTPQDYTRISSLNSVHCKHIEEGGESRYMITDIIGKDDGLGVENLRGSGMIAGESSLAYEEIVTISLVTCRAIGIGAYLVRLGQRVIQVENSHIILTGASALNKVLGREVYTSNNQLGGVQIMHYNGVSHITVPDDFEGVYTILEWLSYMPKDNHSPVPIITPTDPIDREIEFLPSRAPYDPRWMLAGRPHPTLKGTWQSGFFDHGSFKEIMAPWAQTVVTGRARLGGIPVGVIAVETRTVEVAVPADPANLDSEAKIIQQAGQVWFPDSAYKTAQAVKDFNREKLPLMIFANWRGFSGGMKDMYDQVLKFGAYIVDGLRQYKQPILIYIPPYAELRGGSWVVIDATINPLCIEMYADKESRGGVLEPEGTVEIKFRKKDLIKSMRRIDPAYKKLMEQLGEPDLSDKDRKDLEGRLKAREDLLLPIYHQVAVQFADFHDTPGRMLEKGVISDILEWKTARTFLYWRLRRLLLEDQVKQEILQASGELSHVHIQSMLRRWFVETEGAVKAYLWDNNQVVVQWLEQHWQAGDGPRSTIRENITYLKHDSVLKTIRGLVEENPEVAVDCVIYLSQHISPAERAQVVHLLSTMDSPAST

For orientation: pIC50 means −log10 of the IC50, conventionally taken in molar units. A lower pIC50 goes with a high IC50. Regarding `CC(=O)NC(C)CCc1ccc(C2CN(c3ncc4nc(-c5ccccc5)oc4n3)C2)cc1` (stereo not shown) [Example 2.05], the pIC50 was 6.09.

Turning to `CCOc1ccc(N2CC(c3ccc(CC(C)NC(C)=O)cc3)C2)cc1` (stereo not shown) [Example 1.08], the pIC50 was 6.19.

With `CC(=O)Nc1nc(C(=O)N[C@@H](C)c2ccc(C3CN(c4ccc(OCC5CC5)cc4)C3)cc2)cs1` [Example 3.31], the negative-log IC50 (pIC50) is 5.79.

`CC(Cc1ccc(C2CN(c3ccc(OCC4CC4)cc3)C2)cc1)NC(=O)CF` (stereo not shown) [Example 3.14] had a pIC50 of 5.75.

`CC(=O)N[C@@H](C)c1ccc(C2CN(c3ccc(OC4CCC4)cc3)C2)cc1` [Example 1.24]: the pIC50 was 5.79. The pIC50 values of the last two molecules are within 0.2 log units of each other.

In turn, `CC(=O)NC(C)Cc1ccc(C2CN(c3ccc4c(c3)OCCO4)C2)cc1` (stereo not shown) [Example 1.13] had a pIC50 of 6.02.

In turn, `CC(=O)N[C@@H](C)c1ccc(C2CN(c3ccc(OCCCF)cn3)C2)cc1` [Example 1.34] gave a pIC50 of 6.08.

In turn, `CC(F)C(=O)N[C@@H](C)c1ccc(C2CN(c3ccc(OCC4CC4)cc3)C2)cc1` (stereo partly shown) [Example 3.55] had a pIC50 of 5.88. This pIC50 is 0.20 log units lower than that of the molecule before.

Molecule `C=CCC(=O)N[C@@H](C)c1ccc(C2CN(c3ccc(OCC4CC4)cc3)C2)cc1` [Example 3.91] gave a pIC50 of 6.20.

In turn, `C[C@H](NC(=O)Cn1cncn1)c1ccc(C2CN(c3ccc(OCC4CC4)cc3)C2)cc1` [Example 3.29] had a pIC50 of 5.78.

`C[C@H](NC(=O)C(C)(F)F)c1ccc(C2CN(c3ccc(OCC4CC4)cc3)C2)cc1` [Example 3.88] gave a negative logarithm of the IC50 (pIC50) of 6.28.

In turn, `CC(Cc1ccc(C2CN(c3ccc(OCC4CC4)cc3)C2)cc1)NC(=O)C(C)F` (stereo not shown) [Example 3.09] had a negative-log IC50 (pIC50) of 5.60.

For the molecule `C[C@H](NC(=O)c1ccon1)c1ccc(C2CN(c3ccc(OCC4CC4)cc3)C2)cc1` [Example 3.81], the pIC50 is 5.85.

`C[C@H](NC(=O)Cc1cncnc1)c1ccc(C2CN(c3ccc(OCC4CC4)cc3)C2)cc1` [Example 3.48] had a pIC50 of 5.96. This pIC50 and that of the molecule before are within 0.2 log units of each other.

For the molecule `C[C@H](NC(=O)c1cnn(C)c1)c1ccc(C2CN(c3ccc(OCC4CC4)cc3)C2)cc1` [Example 3.90], the pIC50 is 6.21.

In turn, `CC(=O)NC(C)c1ccc(C2CN(c3ccc(OC4CCCC4)cc3)C2)cc1` (stereo not shown) [Example 1.21] showed a pIC50 of 6.47.

As for `CC(=O)N[C@@H](C)c1ccc(C2CN(c3ccc(OCC4CC4(F)F)cn3)C2)cc1` (stereo partly shown) [Example 1.31], the pIC50 was 6.22.

`CC(Cc1ccc(C2CN(c3ccc(OCC4CC4)cc3)C2)cc1)NC(=O)C(C)(F)F` (stereo not shown) [Example 3.11] showed a pIC50 of 5.84.

Molecule `C[C@H](NC(=O)C1CC(F)C1)c1ccc(C2CN(c3ccc4c(c3)OCCO4)C2)cc1` (stereo partly shown) [Example 3.33] showed a pIC50 of 5.54.

`CC(=O)NC(C)CCc1ccc(C2CN(c3ncc(C4CC4)cn3)C2)cc1` (stereo not shown) [Example 2.04] gave a pIC50 of 5.59. This pIC50 and that of the molecule before are within 0.2 log units of each other.

`C[C@H](NC(=O)C(F)F)c1ccc(C2CN(c3ccc4c(c3)OCCO4)C2)cc1` [Example 3.70]: the pIC50 was 5.99.

As to `CC(=O)Nc1nc(C)c(C(=O)NC(C)Cc2ccc(C3CN(c4ccc(OCC5CC5)cc4)C3)cc2)s1` (stereo not shown) [Example 3.15], the pIC50 was 5.98. This pIC50 and that of the molecule before are within 0.2 log units of each other.

As for `CC(=O)Nc1nc(C)c(C(=O)N[C@@H](C)c2ccc(C3CN(c4ccc(OCC5CC5)cc4)C3)cc2)s1` [Example 3.04], the pIC50 is 6.60.

`CC(=O)N[C@@H](C)c1ccc(C2CN(c3ncc(OCC4CC4(F)F)cc3F)C2)cc1` (stereo partly shown) [Example 1.35] gave a pIC50 of 6.74.

`CC(=O)N[C@@H](C)c1ccc(C2CN(c3ncc(OCC4CC4(F)F)cn3)C2)cc1` (stereo partly shown) [Example 1.33] showed a pIC50 of 6.74.

In turn, `C=CCC(=O)NC(C)Cc1ccc(C2CN(c3ccc(OCC4CC4)cc3)C2)cc1` (stereo not shown) [Example 3.06] had a pIC50 of 5.97.

Molecule `CC(=O)N[C@@H](C)c1ccc(C2CN(c3ccnc(N4CCOCC4)n3)C2)cc1` [Example 1.32] had a pIC50 of 5.04. This pIC50 is 0.93 log units lower than that of the molecule before.

As to `CC(=O)N[C@@H](C)c1ccc(C2CN(c3ncnc(OCC4CC4)c3Cl)C2)cc1` [Example 5.5], the pIC50 was 6.42. Against the preceding molecule, the pIC50 is 1.38 log units higher.

`CC(=O)N[C@@H](C)c1ccc(C2CN(c3ncc(C(F)(F)F)cn3)C2)cc1` [Example 2.15] had a pIC50 of 6.07. This pIC50 lies 0.35 log units lower than the previous one.

In turn, `C[C@H](NC(=O)c1ccnnc1)c1ccc(C2CN(c3ccc(OCC4CC4)cc3)C2)cc1` [Example 3.58] showed a negative logarithm of the IC50 (pIC50) of 5.52.

Consider `CCCOc1ccc(N2CC(c3ccc([C@H](C)NC(C)=O)cc3)C2)cc1` [Example 1.26], for which the pIC50 was 6.29.

`C[C@H](NC(=O)c1ccon1)c1ccc(C2CN(c3ccc4c(c3)OCCO4)C2)cc1` [Example 3.73] had a pIC50 of 5.60.

For `CC(Cc1ccc(C2CN(c3ccc(OCC4CC4)cc3)C2)cc1)NC(=O)c1ccon1` (stereo not shown) [Example 3.77], the pIC50 was 5.77. This pIC50 and that of the molecule before are within 0.2 log units of each other.

In the case of `CCCC(=O)NC(C)Cc1ccc(C2CN(c3ccc(OCC4CC4)cc3)C2)cc1` (stereo not shown) [Example 3.08], the negative-log IC50 (pIC50) is 5.51.

`CCC(=O)N[C@@H](C)c1ccc(C2CN(c3ccc(OCC4CC4)cc3)C2)cc1` [Example 3.42]: the pIC50 is 6.03.

`CC(=O)NCCCC(=O)NC(C)Cc1ccc(C2CN(c3ccc(OCC4CC4)cc3)C2)cc1` (stereo not shown) [Example 3.67] gave a pIC50 of 5.77. This pIC50 lies 0.26 log units lower than the previous one.

Turning to `CC(=O)NC(C)Cc1ccc(C2CN(c3ncc(Br)cn3)C2)cc1` (stereo not shown) [Example 2.01, N-(1-(4-(1-(5-bromopyrimidin-2-yl)azetidin-3-yl)phenyl)propan-2-yl)acetamide], the pIC50 was 5.07. Compared with the last molecule, the pIC50 is 0.70 log units lower.

On to `C[C@H](NC(=O)C1CC1)c1ccc(C2CN(c3ccc(OCC4CC4)cc3)C2)cc1` [Example 3.56], for which the pIC50 is 6.15.

`CC(=O)N[C@@H](C)c1ccc(C2CN(c3ccc(C(F)(F)F)cn3)C2)cc1` [Example 2.09] gave a pIC50 of 6.35.

For `CC(Cc1ccc(C2CN(c3ccc(OCC4CC4)cc3)C2)cc1)NC(=O)CCC#N` (stereo not shown) [Example 3.18], the pIC50 is 5.52.

The molecule `CCCOc1ccc(N2CC(c3ccc(CC(C)NC(C)=O)cc3)C2)cn1` (stereo not shown) [Example 1.05] had a pIC50 of 6.05. Against the preceding molecule, the pIC50 is 0.53 log units higher.

`Cc1ncsc1C(=O)N[C@@H](C)c1ccc(C2CN(c3ccc(OCC4CC4)cc3)C2)cc1` [Example 3.25]: the pIC50 was 5.52. This pIC50 is 0.53 log units lower than that of the molecule before.

`CCOCC(=O)N[C@@H](C)c1ccc(C2CN(c3ccc(OCC4CC4)cc3)C2)cc1` [Example 3.22]: the negative logarithm of the IC50 (pIC50) was 5.59.

Molecule `CCOc1ccc(N2CC(c3ccc(C(C)NC(C)=O)cc3)C2)cc1` (stereo not shown) [Example 1.19] had a pIC50 of 5.95.

For the molecule `Cc1cc(CC(=O)N[C@@H](C)c2ccc(C3CN(c4ccc(OCC5CC5)cc4)C3)cc2)on1` [Example 3.60], the pIC50 was 5.93.

The molecule `CCC(C)Nc1ncc(N2CC(c3ccc(C(C)NC(C)=O)cc3)C2)cn1` (stereo not shown) [Example 1.22] had a pIC50 of 5.68. Against the preceding molecule, the pIC50 is 0.25 log units lower.

Regarding `Cc1oncc1C(=O)N[C@@H](C)c1ccc(C2CN(c3ccc(OCC4CC4)cc3)C2)cc1` [Example 3.01, (S)—N-(1-(4-(1-(4-(cyclopropylmethoxy)phenyl)azetidin-3-yl)phenyl)ethyl)-5-methylisoxazole-4-carboxamide], the pIC50 was 6.48.

For the molecule `C[C@H](NC(=O)CCO)c1ccc(C2CN(c3ccc(OCC4CC4)cc3)C2)cc1` [Example 3.80], the pIC50 is 5.61.

Molecule `C[C@H](NC(=O)Cc1cc[nH]c1)c1ccc(C2CN(c3ccc(OCC4CC4)cc3)C2)cc1` [Example 3.21] had a negative logarithm of the IC50 (pIC50) of 5.53.

In turn, `CCC(=O)NC(C)Cc1ccc(C2CN(c3ccc(OCC4CC4)cc3)C2)cc1` (stereo not shown) [Example 3.10] had a pIC50 of 6.05. Against the preceding molecule, the pIC50 is 0.52 log units higher.

For the molecule `CCCOc1cc(N2CC(c3ccc(CC(C)NC(C)=O)cc3)C2)ccn1` (stereo not shown) [Example 1.12], the negative logarithm of the IC50 (pIC50) is 6.21. The pIC50 values of the last two molecules are within 0.2 log units of each other.

With `Cc1ncc(C(=O)N[C@@H](C)c2ccc(C3CN(c4ccc(OCC5CC5)cc4)C3)cc2)s1` [Example 3.40], the pIC50 is 5.88.

Molecule `CCCOc1ccc(N2CC(c3ccc(CC(C)NC(C)=O)cc3)C2)c(OC)c1` (stereo not shown) [Example 1.11] showed a pIC50 of 6.22.

As to `CC(=O)Nc1cncc(C(=O)N[C@@H](C)c2ccc(C3CN(c4ccc(OCC5CC5)cc4)C3)cc2)c1` [Example 3.51], the negative-log IC50 (pIC50) is 5.66.

On to `C[C@H](NC(=O)C1CNC(=O)C1)c1ccc(C2CN(c3ccc(OCC4CC4)cc3)C2)cc1` (stereo partly shown) [Example 3.34], for which the pIC50 is 5.56.

Turning to `CC(=O)N[C@@H](C)c1ccc(C2CN(c3nc(N(C)CC(F)F)ncc3F)C2)cc1` [Example 4.2], the pIC50 was 6.00.

The molecule `CC(C#N)C(=O)N[C@@H](C)c1ccc(C2CN(c3ccc(OCC4CC4)cc3)C2)cc1` (stereo partly shown) [Example 3.28] showed a pIC50 of 5.92.

As to `CC(=O)NC(C)Cc1ccc(C2CN(c3ccc(OC4CC4)cc3)C2)cc1` (stereo not shown) [Example 1.03], the pIC50 was 6.47.

For the origin of these results see patent publication US8623860B2, “Azetidine derivatives, pharmaceutical compositions and uses thereof” (Boehringer Ingelheim International GmbH, priority 2011, dated 2014).
